In ChEMBL document CHEMBL5647690, “Inhibition of demethylases by GSK-J1/J4” (Nature, 2014):

Legend:
[1] = target: Lysine-specific demethylase 5C (Homo sapiens, UniProt P41229); test: Inhibition of KDM5C (2 to 1560 residues)(unknown origin) by Alphalisa assay
[2] = target: Lysine-specific demethylase 6A (Homo sapiens, UniProt O15550); test: Inhibition of KDM6A (919 to 1401 residues)(unknown origin) by Alphalisa assay
[3] = target: Histone lysine demethylase PHF8 (Homo sapiens, UniProt Q9UPP1); test: Inhibition of PHF8 (1 to 1024 residues)(unknown origin) by Alphalisa assay
Sequence of Histone lysine demethylase PHF8 (Q9UPP1 whole entry, the tested form may be a part): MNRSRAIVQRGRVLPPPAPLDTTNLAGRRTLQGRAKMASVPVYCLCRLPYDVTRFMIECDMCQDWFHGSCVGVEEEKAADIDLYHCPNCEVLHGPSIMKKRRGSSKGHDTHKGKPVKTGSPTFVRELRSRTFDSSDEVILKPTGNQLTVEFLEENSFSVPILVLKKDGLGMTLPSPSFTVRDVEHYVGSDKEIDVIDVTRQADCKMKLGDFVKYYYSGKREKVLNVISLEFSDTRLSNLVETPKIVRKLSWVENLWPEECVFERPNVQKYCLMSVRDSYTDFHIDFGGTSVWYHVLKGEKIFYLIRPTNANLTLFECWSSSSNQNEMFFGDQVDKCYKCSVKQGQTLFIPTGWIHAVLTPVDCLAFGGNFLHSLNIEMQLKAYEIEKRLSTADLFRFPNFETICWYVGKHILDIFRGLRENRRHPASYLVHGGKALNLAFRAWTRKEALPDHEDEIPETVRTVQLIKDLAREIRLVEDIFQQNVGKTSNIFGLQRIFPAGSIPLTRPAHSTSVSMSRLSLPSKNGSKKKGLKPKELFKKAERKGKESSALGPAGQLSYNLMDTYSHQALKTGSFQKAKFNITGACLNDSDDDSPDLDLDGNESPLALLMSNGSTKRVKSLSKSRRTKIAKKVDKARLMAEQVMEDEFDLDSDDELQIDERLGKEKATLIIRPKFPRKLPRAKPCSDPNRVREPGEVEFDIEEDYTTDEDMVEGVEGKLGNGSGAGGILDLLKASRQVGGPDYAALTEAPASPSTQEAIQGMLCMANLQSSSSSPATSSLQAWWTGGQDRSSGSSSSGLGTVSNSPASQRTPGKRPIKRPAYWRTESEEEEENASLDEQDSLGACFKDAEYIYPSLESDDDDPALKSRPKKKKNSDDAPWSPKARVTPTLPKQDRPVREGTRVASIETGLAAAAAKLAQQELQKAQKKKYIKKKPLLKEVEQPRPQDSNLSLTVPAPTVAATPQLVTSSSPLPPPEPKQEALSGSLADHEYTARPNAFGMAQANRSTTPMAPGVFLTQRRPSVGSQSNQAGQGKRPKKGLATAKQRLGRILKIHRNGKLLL

[4] = target: T1, Lysine-specific demethylase 2B (Homo sapiens, UniProt Q8NHM5); test: Inhibition of KDM2B (1 to 650 residues)(unknown origin) by Alphalisa assay
T1 sequence (Q8NHM5 whole entry): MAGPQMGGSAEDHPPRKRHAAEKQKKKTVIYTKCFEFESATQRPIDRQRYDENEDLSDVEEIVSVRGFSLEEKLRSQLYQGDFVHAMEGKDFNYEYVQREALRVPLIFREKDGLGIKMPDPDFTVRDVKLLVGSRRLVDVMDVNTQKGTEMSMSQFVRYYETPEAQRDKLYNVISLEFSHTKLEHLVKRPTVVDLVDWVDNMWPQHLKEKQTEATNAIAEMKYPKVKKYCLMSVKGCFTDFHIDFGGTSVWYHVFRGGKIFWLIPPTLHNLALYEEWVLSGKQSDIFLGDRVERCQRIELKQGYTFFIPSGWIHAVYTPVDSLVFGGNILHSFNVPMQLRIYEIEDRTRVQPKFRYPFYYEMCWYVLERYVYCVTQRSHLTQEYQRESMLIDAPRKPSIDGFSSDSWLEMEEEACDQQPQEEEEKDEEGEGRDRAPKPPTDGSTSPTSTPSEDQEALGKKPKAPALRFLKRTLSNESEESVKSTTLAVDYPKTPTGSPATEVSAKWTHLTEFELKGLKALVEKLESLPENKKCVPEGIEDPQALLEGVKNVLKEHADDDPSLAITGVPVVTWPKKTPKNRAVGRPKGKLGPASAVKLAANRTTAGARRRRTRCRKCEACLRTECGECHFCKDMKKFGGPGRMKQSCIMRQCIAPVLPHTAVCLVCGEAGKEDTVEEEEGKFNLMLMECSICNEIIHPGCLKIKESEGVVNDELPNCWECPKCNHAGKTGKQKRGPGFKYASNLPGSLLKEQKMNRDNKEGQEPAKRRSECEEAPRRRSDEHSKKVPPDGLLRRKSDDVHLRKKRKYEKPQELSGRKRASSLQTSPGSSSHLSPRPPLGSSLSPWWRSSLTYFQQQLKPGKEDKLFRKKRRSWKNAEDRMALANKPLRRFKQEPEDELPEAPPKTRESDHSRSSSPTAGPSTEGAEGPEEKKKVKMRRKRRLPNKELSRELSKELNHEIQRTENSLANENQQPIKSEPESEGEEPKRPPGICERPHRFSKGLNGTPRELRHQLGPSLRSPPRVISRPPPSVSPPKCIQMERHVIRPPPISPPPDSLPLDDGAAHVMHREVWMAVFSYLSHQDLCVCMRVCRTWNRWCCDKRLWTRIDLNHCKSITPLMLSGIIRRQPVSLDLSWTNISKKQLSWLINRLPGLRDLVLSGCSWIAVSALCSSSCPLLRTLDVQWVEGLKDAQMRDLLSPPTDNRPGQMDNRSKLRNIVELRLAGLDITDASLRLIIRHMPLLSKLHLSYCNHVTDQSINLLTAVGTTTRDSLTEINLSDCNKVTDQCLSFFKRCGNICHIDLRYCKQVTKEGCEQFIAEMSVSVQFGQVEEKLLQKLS

[5] = target: T2, Lysine-specific demethylase 4C (Homo sapiens, UniProt Q9H3R0); test: Inhibition of KDM4C (1 to 349 residues)(unknown origin) by Alphalisa assay
T2 sequence (Q9H3R0 whole entry): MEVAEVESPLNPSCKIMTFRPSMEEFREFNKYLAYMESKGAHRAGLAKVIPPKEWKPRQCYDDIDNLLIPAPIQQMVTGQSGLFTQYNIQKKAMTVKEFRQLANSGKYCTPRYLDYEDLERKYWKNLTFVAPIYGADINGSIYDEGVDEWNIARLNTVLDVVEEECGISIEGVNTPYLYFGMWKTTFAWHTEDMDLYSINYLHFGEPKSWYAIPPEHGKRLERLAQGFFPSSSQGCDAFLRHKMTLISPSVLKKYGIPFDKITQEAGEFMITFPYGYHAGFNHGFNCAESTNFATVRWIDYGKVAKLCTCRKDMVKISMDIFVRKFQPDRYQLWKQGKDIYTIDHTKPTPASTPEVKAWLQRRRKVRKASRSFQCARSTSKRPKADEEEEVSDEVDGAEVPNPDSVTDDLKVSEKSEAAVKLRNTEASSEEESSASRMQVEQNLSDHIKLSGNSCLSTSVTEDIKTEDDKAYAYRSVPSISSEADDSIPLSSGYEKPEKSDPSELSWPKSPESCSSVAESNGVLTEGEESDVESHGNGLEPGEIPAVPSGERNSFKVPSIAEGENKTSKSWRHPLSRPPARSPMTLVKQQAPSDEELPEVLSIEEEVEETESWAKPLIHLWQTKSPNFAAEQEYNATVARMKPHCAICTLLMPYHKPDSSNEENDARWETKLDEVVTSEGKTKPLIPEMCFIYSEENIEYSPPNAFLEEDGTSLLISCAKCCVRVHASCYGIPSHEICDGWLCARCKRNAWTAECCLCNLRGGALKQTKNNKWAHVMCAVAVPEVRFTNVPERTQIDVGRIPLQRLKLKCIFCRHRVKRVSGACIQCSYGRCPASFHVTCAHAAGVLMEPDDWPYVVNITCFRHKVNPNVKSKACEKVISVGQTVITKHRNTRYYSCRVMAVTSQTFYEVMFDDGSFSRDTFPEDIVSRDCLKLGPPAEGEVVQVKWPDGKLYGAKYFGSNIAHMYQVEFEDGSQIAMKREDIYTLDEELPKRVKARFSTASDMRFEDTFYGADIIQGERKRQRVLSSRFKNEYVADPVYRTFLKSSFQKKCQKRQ

[6] = target: Lysine-specific demethylase 5B (Homo sapiens, UniProt Q9UGL1); test: Inhibition of KDM5B (1 to 809 residues)(unknown origin) by Alphalisa assay
Sequence of Lysine-specific demethylase 5B (Q9UGL1 whole entry, the tested form may be a part): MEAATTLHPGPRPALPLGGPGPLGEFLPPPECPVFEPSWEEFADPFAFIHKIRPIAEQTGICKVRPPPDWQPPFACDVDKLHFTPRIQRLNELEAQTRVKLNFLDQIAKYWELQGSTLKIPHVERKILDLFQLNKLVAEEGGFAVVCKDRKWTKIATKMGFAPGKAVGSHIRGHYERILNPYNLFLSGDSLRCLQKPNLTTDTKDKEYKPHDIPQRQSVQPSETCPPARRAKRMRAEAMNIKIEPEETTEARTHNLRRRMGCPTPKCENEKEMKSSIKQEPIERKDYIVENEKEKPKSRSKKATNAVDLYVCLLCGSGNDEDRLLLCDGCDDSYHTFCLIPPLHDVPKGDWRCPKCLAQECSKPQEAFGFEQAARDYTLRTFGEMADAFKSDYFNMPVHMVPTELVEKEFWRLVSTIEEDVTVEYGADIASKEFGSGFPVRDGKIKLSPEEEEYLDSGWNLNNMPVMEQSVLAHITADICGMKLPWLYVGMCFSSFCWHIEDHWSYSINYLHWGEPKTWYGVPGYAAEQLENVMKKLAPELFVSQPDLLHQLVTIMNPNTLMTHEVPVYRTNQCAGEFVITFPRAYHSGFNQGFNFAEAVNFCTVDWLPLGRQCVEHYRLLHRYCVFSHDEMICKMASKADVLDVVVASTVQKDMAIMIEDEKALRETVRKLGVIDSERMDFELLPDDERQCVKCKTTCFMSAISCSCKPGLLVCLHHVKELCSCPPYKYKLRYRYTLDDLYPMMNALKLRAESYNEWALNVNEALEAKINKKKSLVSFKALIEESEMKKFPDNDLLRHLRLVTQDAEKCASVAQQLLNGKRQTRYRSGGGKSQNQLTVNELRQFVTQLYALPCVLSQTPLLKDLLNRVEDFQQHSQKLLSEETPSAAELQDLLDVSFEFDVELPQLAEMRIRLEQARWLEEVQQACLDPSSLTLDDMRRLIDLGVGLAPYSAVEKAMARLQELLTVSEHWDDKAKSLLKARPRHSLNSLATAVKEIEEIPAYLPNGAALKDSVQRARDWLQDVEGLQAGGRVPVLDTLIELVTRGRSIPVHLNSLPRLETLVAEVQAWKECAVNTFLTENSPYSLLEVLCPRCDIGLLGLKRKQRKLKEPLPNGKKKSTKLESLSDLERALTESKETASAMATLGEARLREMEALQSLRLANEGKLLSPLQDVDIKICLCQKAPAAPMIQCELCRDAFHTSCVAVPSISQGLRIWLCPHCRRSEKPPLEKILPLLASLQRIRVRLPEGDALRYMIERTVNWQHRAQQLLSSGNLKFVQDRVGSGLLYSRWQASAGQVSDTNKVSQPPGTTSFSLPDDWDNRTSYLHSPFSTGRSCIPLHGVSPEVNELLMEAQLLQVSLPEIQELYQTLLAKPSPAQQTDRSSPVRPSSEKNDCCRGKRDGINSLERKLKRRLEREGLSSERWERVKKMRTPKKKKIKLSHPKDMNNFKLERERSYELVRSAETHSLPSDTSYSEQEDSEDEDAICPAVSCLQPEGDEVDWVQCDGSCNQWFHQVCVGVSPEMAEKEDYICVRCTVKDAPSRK

Sequence of Lysine-specific demethylase 5C (P41229 whole entry, the tested form may be a part): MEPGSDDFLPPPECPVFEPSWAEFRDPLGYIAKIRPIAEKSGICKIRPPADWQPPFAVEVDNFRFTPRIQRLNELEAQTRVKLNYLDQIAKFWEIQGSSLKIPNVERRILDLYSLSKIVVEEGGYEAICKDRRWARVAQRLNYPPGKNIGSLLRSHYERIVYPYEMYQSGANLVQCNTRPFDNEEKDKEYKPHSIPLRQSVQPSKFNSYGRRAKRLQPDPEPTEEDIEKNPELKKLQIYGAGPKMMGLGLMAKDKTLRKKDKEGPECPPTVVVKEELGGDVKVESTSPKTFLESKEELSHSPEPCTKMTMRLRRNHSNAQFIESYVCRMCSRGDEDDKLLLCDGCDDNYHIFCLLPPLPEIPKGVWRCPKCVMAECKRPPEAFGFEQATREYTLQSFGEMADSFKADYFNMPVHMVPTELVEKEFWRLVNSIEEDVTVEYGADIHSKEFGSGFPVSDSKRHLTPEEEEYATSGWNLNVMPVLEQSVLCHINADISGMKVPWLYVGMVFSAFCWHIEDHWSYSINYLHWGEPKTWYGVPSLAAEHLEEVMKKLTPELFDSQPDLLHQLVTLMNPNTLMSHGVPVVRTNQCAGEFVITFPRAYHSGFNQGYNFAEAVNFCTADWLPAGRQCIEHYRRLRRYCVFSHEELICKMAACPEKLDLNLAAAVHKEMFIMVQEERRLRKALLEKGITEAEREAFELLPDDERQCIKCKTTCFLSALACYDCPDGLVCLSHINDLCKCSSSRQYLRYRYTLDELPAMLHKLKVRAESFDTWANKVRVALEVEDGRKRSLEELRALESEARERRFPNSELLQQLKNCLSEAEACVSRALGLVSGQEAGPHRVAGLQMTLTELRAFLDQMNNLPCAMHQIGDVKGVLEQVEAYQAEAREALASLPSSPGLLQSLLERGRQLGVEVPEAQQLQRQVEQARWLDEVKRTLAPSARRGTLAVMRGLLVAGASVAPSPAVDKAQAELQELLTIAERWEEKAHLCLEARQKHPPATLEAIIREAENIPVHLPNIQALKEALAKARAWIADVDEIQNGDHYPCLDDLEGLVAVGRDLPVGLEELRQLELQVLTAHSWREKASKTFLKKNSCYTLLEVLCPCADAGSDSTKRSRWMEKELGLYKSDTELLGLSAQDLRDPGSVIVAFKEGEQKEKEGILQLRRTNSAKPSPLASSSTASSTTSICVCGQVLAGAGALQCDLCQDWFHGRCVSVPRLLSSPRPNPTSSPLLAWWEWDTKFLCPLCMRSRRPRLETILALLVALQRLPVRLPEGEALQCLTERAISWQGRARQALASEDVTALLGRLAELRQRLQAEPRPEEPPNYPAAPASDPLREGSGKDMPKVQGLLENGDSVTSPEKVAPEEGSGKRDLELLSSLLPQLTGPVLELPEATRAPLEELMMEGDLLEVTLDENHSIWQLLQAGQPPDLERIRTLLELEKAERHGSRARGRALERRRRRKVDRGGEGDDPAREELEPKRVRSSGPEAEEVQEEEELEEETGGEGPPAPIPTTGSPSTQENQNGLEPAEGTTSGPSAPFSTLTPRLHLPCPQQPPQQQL

IC50 [1] [µM] | IC50 [2] [µM] | IC50 [3] [µM] | IC50 [4] [µM] | IC50 [5] [µM] | IC50 [6] [µM] | Structure (SMILES)
15 | 6.6 | 4.2 | 2.1 | 5.5 | 9.7 | CCOC(=O)CCNc1cc(N2CCc3ccccc3CC2)nc(-c2ccccn2)n1
0.55 | 0.053 | 28 | 21 | 34 | 0.17 | O=C(O)CCNc1cc(N2CCc3ccccc3CC2)nc(-c2ccccn2)n1
